Results: PMC3724985, “Isolation, biochemical characterization, and cloning of a bacteriocin from the poultry-associated Staphylococcus aureus strain CH-91” (Applied Microbiology and Biotechnology, 2012)
In brackets after ≈: the same amount, converted by molar mass.

Legend:
[1] = pH stability, residual activity by radial diffusion assay; assay type: physicochemical; details: 30 μM, S. lutea ATCC 9341, triplicate
Procedure: (§1) To test the pH stability of BacCH91, a water solution of the bacteriocin (final concentration, 30 μM) was evaporated in a vacuum centrifuge and re-dissolved in (a) 100 mM sodium citrate pH 3.0, 4.0, 5.0, and 6.0; […] The solutions were incubated for 3 h at RT, and the residual activity of the bacteriocin was determined using the radial diffusion assay. The temperature stability of BacCH91 (30 μM final concentration) was determined in 50 mM Tris–HCl pH 7.4, 0.15 M NaCl and 50 mM bis-Tris pH 6.4, 0.15 M NaCl. The solutions were incubated for 1, 6, and 24 h at 37, 60, 80, and 99 °C. […] All of the above experiments were performed in triplicate. The final results are presented as means ± SD.

[2] = system: Streptococcus mutans ATCC 25175; assay type: cell-based
Excerpt: (§2) S. aureus CH-91 was kindly provided by S. Takeuchi from Fukui Prefectural University, Japan (Takeuchi et al. [1999]). The strain has been deposited in the DSMZ collection under the number DSM 26258. Bacillus licheniformis NCTC 7224, Bacillus subtilis ATCC 6633, Lactococcus lactis subsp. lactis LOCK 0869, Micrococcus luteus strains DSMZ 20030 and CBM (clinical isolate), Sarcina lutea ATCC 9341, S. aureus strains ATCC 25923, M-122 (Polakowska et al. [2012]), Newman and RN4220, S. epidermidis ATCC 35347, Staphylococcus intermedius ATCC 29666, Staphylococcus pseudintermedius LMG 22219 (Devriese et al. [2005]), Staphylococcus saprophyticus ATCC 49453, Staphylococcus xylosus strains isolated from the skin of healthy chickens, Streptococcus mutans ATCC 25175, Streptococcus pneumoniae ATCC 49619, Escherichia coli K12 ATCC 10798, Klebsiella pneumoniae, Serratia marcescens, and Sphingomonas sp. AMC 3962 (Dziga et al. [2012]) were obtained from the collections of The Faculty of Biochemistry, Biophysics and Biotechnology, Jagiellonian University, Krakow, Poland. A list of strains used for assessment of the general occurrence of the bacteriocin gene is provided in the Electronic supplementary materials (ESM; Table S1). Gram-positive and Gram-negative bacteria were maintained at 37 °C in tryptic soy broth (TSB) and Luria-Bertani broth (both obtained from Sigma), respectively.
(§3) The bactericidal activity of BacCH91 was determined using the micro-dilution method in compliance with Clinical and Laboratory Standards Institute guidelines M7-A7 (CLSI [2006]). Briefly, the bacteria were either cultivated in cation-adjusted MHB to the early exponential phase or grown overnight on agar-solidified MHB supplemented with 2.5 % LHB in the case of Streptococcus spp. and L. lactis. Subsequently, the bacteria were diluted to 1 × 10^6 CFU/ml either in MHB or in MHB supplemented with 5 % LHB, in the case of the latter bacteria. Fifty-microliter portions of bacterial suspension were mixed with an equal volume of MHB containing serial twofold dilutions of bacteriocin. After overnight incubation at 37 °C, the optical density (OD) at 600 nm was measured. The MIC was defined as the minimum bacteriocin concentration for which the increase in OD was not observed compared to uninoculated broth.

[3] = system: Staphylococcus aureus M-122; assay type: cell-based
Excerpt: as §2, §3

[4] = system: Staphylococcus aureus CH91; assay type: cell-based
Excerpt: as §2, §3

[5] = system: Staphylococcus saprophiticus ATCC 49453; assay type: cell-based
Excerpt: as §2, §3

[6] = system: Sphingomonas sp. AMC 3962; assay type: cell-based
Excerpt: as §2, §3

[7] = system: Staphylococcus epidermidis ATCC 35347; assay type: cell-based
Excerpt: as §2, §3

[8] = system: Staphylococcus aureus Newman; assay type: cell-based
Excerpt: as §2, §3

[9] = system: Staphylococcus aureus RN4220; assay type: cell-based; details: Staphylococcus aureus RN4220, bacteriocin gene positive strain; micro-dilution, CLSI M7-A7, cation-adjusted MHB, overnight 37 °C, OD 600 nm
Excerpt: as §2, §3

[10] = system: Serratia marcescens; assay type: cell-based
Excerpt: as §2, §3

[11] = system: Sarcina lutea ATCC 9341; assay type: cell-based
Excerpt: as §2, §3

[12] = system: Staphylococcus xylosus kw 2,5; assay type: cell-based
Excerpt: as §2, §3

[13] = system: various S. aureus strains; assay type: cell-based
Excerpt: as §2, §3

[14] = system: Escherichia coli K12 ATCC 10798; assay type: cell-based
Excerpt: as §2, §3

[15] = system: Streptococcus pneumoniae ATCC 49619; assay type: cell-based
Excerpt: as §2, §3

[16] = system: Bacillus licheniformis NCTC 7224; assay type: cell-based
Excerpt: as §2, §3

[17] = system: Staphylococcus pseudintermedius LMG 22219; assay type: cell-based
Excerpt: as §2, §3

[18] = system: Klebsiella pneumoniae; assay type: cell-based
Excerpt: as §2, §3

[19] = system: Staphylococcus aureus ATCC 25923; assay type: cell-based
Excerpt: as §2, §3

[20] = system: Bacillus subtilis ATCC 6633; assay type: cell-based
Excerpt: as §2, §3

[21] = system: staphylococcal strains; assay type: cell-based, Staphylococcus spp.
Excerpt: as §2, with “A list of strains used for assessment of the general occurrence of the bacteriocin gene is provided in the Electronic supplementary materials (ESM; Table S1). Gram-positive and Gram-negative bacteria were maintained at 37 °C in tryptic soy broth (TSB) and Luria-Bertani broth (both obtained from Sigma), respectively.” left out
The bactericidal activity of BacCH91 was determined using the micro-dilution method in compliance with Clinical and Laboratory Standards Institute guidelines M7-A7 (CLSI [2006]). […] After overnight incubation at 37 °C, the optical density (OD) at 600 nm was measured. […]

[22] = system: Staphylococcus intermedius ATCC 29663; assay type: cell-based
[23] = assay type: physicochemical; details: 30 μM, radial diffusion assay, S. lutea
Procedure: as §1

For `C/C=C(\NC(=O)[C@H](CCCCN)NC(=O)CNC(=O)[C@@H]1CS[C@@H](C)[C@@H](NC(=O)[C@@H]2CSC[C@@H](NC(=O)/C(=C/C)NC(=O)[C@@H](N)[C@@H](C)CC)C(=O)N[C@@H](Cc3ccccc3)C(=O)N[C@@H]([C@@H](C)CC)C(=O)NCC(=O)N2)C(=O)N2CCC[C@H]2C(=O)NCC(=O)N1)C(=O)NCC(=O)N[C@@H]1CSC[C@@H]2NC(=O)[C@H](Cc3ccccc3)NC(=O)[C@@H](CS/C=C\NC2=O)NC(=O)[C@H](CC(N)=O)NC(=O)[C@H](Cc2ccccc2)NC1=O` [BacCH91], the “residual bactericidal activity after incubation at pH 11.0” value ([1]; 100 mM 3-cyclohexylamino-1-propanesulphonic acid-NaOH pH 11.0, 3 h at RT) was “complete inactivation”, the “residual bactericidal activity after incubation at pH 7.0 and higher” value ([1]; 100 mM Tris–HCl pH 7.0, 8.0, 9.0 and 100 mM CAPS-NaOH pH 10.0, 11.0, 3 h at RT) was “gradual loss of bactericidal activity” and the “residual bactericidal activity after incubation at pH 3.0–6.0” value ([1]; 100 mM sodium citrate pH 3.0, 4.0, 5.0, 6.0, 3 h at RT) was “retained full bactericidal activity”. For the same molecule, the MIC [2] was 2.0 µM (≈ 4.15 µg/mL), the MIC [3] was 4.0 µM (≈ 8.31 µg/mL) and the MIC [4] was 1.3 µM (≈ 2.7 µg/mL). The MIC [5] was 3.0 µM (≈ 6.23 µg/mL), the MIC [6] was over 100 µM and the MIC [7] was 1.6 µM (≈ 3.32 µg/mL). The MIC [8] was 6.0 µM (≈ 12.5 µg/mL), the MIC [9] was 6.0 µM (≈ 12.5 µg/mL) and the MIC [10] was over 100 µM. The MIC [11] was 0.31 µM (≈ 0.644 µg/mL), the MIC [12] was 1.5 to 2.0 µM and the MIC [13] was 6.0 µM (≈ 12.5 µg/mL). For the same molecule, the MIC [14] was over 100 µM, the MIC [15] was 1.6 µM (≈ 3.32 µg/mL) and the MIC [16] was 1.8 µM (≈ 3.74 µg/mL). For the same molecule, the MIC [17] was 1.5 µM (≈ 3.11 µg/mL), the MIC [18] was over 100 µM and the MIC [19] was 6.0 µM (≈ 12.5 µg/mL). For the same molecule, the MIC [20] was 2.6 µM (≈ 5.4 µg/mL), the MIC [21] was 1.3 to 6.0 µM and the MIC [22] was 1.6 µM (≈ 3.32 µg/mL). For the same molecule, the “residual activity after 1 h at temperatures up to 80 °C” value ([23]; 50 mM Tris–HCl pH 7.4, 0.15 M NaCl and 50 mM bis-Tris pH 6.4, 0.15 M NaCl, 37, 60, 80 °C, 1 h, triplicate) was “maintained its activity”, the “residual activity after several hours at temperatures higher than 60 °C” value ([23]; pH 6.4 and pH 7.4 buffers with 0.15 M NaCl, 6 and 24 h time points, triplicate) was “complete inactivation” and the “activity retained during incubation for 1 h at 80 °C” value ([23]; pH 6.4 and pH 7.4 buffers with 0.15 M NaCl, 80 °C, 1 h) was about 100%. The “residual activity after short incubation at 99 °C” value ([23]; pH 6.4 and pH 7.4 buffers with 0.15 M NaCl, 99 °C, triplicate) was “complete inactivation”.
